Experimental data from US11806377B2, “Oral use of coriander seed oil for a soothing effect on reactive skin” (Societe d'Exploitation de Produits Pour les Industries …, priority 2018, dated 2023).
Marks after values point to notes of the source that are not given here.

Target: T1, TRPA1 (Homo sapiens, UniProt O75762)
T1 construct: Human sensory neurons were obtained from pluripotent stem cells and cultured in culture plates; endogenous in cells; host or cells: human pluripotent-stem-cell-derived sensory neurons co-cultured with human keratinocytes
Assay: Protection against activation of TRPA1 following AITC stimulation, Fluo-4 AM calcium fluorescence in keratinocyte-sensory neuron co-culture
Assay type: cell-based
Details: for Activation of TRPA1 following stimulation with AITC, fluorescence, Mean +/- sem: human keratinocyte-neuron co-culture, 1 mM AITC, 6 replicates, 3 minutes
Description: The in vitro example described here relates to the reduction in the activation of the receptor TRPA1, involved in the induction of sensations of itching/irritation/scratching/pain of the skin following certain stimulations.
Protection Against Activation of TRPA1 (Neuron Experts Service)
Human sensory neurons were obtained from pluripotent stem cells and cultured in culture plates. Human keratinocytes were grown and then seeded above the neurons.
After 19 days of co-culture at 37° C. in a humid atmosphere under 5% CO2, the test products or the positive reference, HC030031 (C18H21N5O3), at 10 μM, and also the fluorescent probe Fluo-4 AM, were added to the co-culture. The Fluo-4 AM probe makes it possible to follow the rapid kinetics of the variation of the intracellular calcium concentration by measuring in real time its fluorescence intensity, and the calcium flux is associated with activation of TRPA1.
After 30 minutes of incubation, the culture medium was removed and the cultures were washed and then reincubated with the test products. Immediately afterwards, they were placed under an inverted microscope and observed in epifluorescence. […] Five seconds after starting the recording, the neurons were stimulated with 10^-3 M AITC (allyl isothiocyanate).
The experiments were carried out in 6 replicates. The fluorescence was analyzed for 3 minutes.
The fluorescence values were expressed as means+/−sem [standard error of the mean=standard deviation/root (number of values)].
For each condition, the percentages of stimulation and of protection were calculated as follows: % stimulation=100×[mean(condition)]/[mean(cells stimulated with AITC)] % protection=100×[mean(condition)−mean(cells stimulated with AITC)]/[mean(unstressed cells)−mean(cells stimulated with AITC)].
Statistical analysis was performed by a one-way ANOVA test with a significance threshold set at 5%, by comparing the conditions in pairs. A difference between the efficacy of two products was considered: • significant if p<0.05; • “at the limit of significance” if 0.05≤p<0.1; • and not significant if p>0.1.

[1] = HC030031 10 μM, coriander seed oil 0.001%

T1 sequence (O75762 whole entry): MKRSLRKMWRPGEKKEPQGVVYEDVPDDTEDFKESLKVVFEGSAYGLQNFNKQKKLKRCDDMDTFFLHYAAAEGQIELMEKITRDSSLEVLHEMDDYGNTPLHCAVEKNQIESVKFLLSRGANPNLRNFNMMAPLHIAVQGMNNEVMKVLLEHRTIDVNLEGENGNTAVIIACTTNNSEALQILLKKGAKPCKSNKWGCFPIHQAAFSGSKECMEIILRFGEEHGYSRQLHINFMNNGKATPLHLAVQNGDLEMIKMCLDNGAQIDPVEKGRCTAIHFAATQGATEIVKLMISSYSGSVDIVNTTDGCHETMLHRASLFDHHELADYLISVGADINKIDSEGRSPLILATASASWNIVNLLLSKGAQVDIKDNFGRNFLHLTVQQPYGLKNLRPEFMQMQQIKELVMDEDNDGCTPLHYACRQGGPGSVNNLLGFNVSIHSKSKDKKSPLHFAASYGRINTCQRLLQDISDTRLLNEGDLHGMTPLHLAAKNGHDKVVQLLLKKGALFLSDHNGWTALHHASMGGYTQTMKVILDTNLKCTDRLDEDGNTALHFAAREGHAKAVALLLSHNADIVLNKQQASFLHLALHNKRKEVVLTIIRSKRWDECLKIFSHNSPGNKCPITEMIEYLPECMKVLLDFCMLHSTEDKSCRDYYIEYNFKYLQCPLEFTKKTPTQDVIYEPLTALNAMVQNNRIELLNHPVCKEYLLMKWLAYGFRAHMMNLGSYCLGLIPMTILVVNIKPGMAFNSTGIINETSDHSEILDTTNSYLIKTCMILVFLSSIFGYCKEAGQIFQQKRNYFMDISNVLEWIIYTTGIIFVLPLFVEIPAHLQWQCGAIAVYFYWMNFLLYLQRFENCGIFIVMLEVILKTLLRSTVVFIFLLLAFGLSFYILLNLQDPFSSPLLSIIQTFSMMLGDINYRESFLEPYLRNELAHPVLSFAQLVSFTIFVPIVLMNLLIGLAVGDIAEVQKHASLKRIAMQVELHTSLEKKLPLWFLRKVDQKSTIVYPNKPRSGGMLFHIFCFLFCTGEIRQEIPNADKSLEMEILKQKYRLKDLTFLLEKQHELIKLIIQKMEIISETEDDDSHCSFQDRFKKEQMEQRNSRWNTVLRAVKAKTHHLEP

Row | SMILES | Activation of TRPA1 following stimulation with AITC, fluorescence, Mean +/- sem [1] | increase in the activation of TRPA1 vs non-stimulated cells (keratinocyte-neuron co-culture, AITC stimulation) | reduction of the activation of TRPA1 (AITC-stimulated keratinocyte-neuron co-culture, coriander seed oil 0.001%) | % protection (against 1 mM AITC stimulation, HC030031 10 μM, coriander seed oil 0.001%) | % stimulation (relative to cells stimulated with 1 mM AITC, HC030031 10 μM, coriander seed oil 0.001%)
1 | C=CCN=C=S [AITC, allyl isothiocyanate] | 34035 +/− 1910*** AU | 585% | – | – | –
2 | CC(C)c1ccc(NC(=O)Cn2cnc3c2c(=O)n(C)c(=O)n3C)cc1 [HC030031] | 8537 +/− 553*** AU | – | 88% | 88% | 25%
